Reference: patent US7335359B2, “Glycosylated specificity exchangers” (Tripep AB, priority 2003, dated 2008)

System: human Gal-alpha1,3-Gal-specific antibodies
Assay: Glycosylated peptide competitive assay on Gal-BSA coated plates with human sera IB72 (FIG. 4)
Format: binding
Conditions: positive control, mixed with human sera IB72
Description: To further evaluate the ability of the glycosylated specificity exchangers to bind to a pathogen, a glycosylated peptide competitive assay was performed using the most reactive human sera (IB72). In brief, Gal-alpha1,3-Gal-labeled bovine serum albumin (Gal-BSA) was coated onto 96-well microplates in sodium carbonate buffer (pH: 9.6) at +4° C. overnight. Dilutions of human sera and dilutions of glyco-peptides (glycosylated HIV-specific ligand/receptor specificity exchangers or Gal-BSA) or non-glycosylated peptides (HIV-specific ligand/receptor specificity exchangers or BSA) were preincubated in phosphate-buffered saline (PBS) containing 1% bovine albumin, 2% goat serum and 0.05% Tween 20 at 37° C. for 1 h. The mixture was then added to the coated plates and incubated at 37° C. for 1 h, then washed 3 times with phosphate-buffered saline (PBS) containing 0.05% Tween 20 (pH: 7.4).
Bound antibodies were indicated with goat anti-human polyvalent Ig, conjugated with alkaline phosphatase. The plates were incubated and washed as described above. Plates were developed with phosphatase substrate at room temperature for 30 min, stopped with 1 M NaOH. Optical density (OD) at 405 nm/650 nm was determined to quantify the inhibition. […] Thus, specificity exchangers that bind Gal-alpha1,3-Gal-specific antibodies had been generated. […]

With “Gal-alpha1,3-Gal-labeled bovine serum albumin [Gal-BSA]” the “inhibition of human antibody binding to Gal-BSA” value was 100%.
